# The source made the active and inactive calls. The rule behind the calls is not given here.
# Legend:
# [1] = target: Amyloid-beta precursor protein (Homo sapiens) (UniProt P05067); assay: Inhibition of Amyloid beta (1 to 42) (unknown origin) self aggregation at 20 uM incubated for 12 hrs by thioflavin T assay
# [2] = target: Amyloid-beta precursor protein (Homo sapiens) (UniProt P05067); assay: Inhibition of Amyloid beta (1 to 42) (unknown origin)-induced cytotoxicity in human SH-SY5Y cells assessed as increase in cell viability at 40 uM incubated for 48 hrs by WST8 assay; format: cell-based
# [3] = target: Amyloid-beta precursor protein (Homo sapiens) (UniProt P05067); assay: Inhibition of Amyloid beta (1 to 42) (unknown origin)-induced cytotoxicity in human SH-SY5Y cells assessed as increase in cell viability incubated for 48 hrs by WST8 assay; format: cell-based
# SH-SY5Y = assay: Cytotoxicity in human SH-SY5Y cells assessed as reduction in cell viability at 0.1 to 1000 nM incubated for 48 hrs by WST8 assay; format: cell-based; conditions: 1 µM
# [4] = target: Amyloid-beta precursor protein (Homo sapiens) (UniProt P05067); assay: Inhibition of Amyloid beta (1 to 42) (unknown origin) fibril formation assessed as reduction in number of fibrils at 20 uM incubated for 48 hrs by transmission-type electron microscopy
# [5] = target: Amyloid-beta precursor protein (Homo sapiens) (UniProt P05067); assay: Inhibition of Amyloid beta (1 to 42) (unknown origin)-induced cytotoxicity in human SH-SY5Y cells assessed as increase in cell viability at 20 uM incubated for 48 hrs by WST8 assay; format: cell-based
# [6] = target: Amyloid-beta precursor protein (Homo sapiens) (UniProt P05067); assay: Inhibition of Amyloid beta (1 to 42) (unknown origin) self aggregation assessed as decrease in negative maximum of CD spectrum of amyloid beta (1-42) incubated for 4 hrs by CD spectroscopy
# [7] = target: Amyloid-beta precursor protein (Homo sapiens) (UniProt P05067); assay: Inhibition of Amyloid beta (1 to 42) (unknown origin) fibril formation assessed as reduction in thickness of fibrils at 20 uM incubated for 48 hrs by transmission-type electron microscopy
# Amyloid-beta precursor protein (Homo sapiens), sequence (P05067 whole entry): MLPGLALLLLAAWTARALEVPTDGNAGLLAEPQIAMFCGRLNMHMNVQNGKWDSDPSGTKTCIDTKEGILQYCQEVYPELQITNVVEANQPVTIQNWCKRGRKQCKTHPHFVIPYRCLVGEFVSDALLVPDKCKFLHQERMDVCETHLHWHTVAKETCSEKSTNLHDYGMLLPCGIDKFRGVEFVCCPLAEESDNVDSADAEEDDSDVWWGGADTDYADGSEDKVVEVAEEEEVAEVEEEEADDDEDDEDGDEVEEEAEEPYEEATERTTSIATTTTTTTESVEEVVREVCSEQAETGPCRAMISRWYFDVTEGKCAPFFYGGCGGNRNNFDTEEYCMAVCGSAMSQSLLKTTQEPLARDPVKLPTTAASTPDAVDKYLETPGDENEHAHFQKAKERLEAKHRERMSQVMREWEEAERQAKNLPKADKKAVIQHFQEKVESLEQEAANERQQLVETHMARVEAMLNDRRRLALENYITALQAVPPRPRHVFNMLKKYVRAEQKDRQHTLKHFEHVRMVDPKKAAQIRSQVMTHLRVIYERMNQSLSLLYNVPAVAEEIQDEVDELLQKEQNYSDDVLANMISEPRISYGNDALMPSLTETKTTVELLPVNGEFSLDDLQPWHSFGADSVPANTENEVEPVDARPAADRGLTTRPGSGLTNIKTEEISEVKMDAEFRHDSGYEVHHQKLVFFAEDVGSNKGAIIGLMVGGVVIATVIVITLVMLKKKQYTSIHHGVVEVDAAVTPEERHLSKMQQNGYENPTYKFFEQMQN
Structure (SMILES),inhibition [1],inhibition [2],inhibition [3],Activity (SH-SY5Y),inhibition [4],inhibition [5],inhibition [6],inhibition [7]
CC1(C)O[C@H]2Cc3c(O)cc(O)cc3O[C@@H]2c2cc(O)c(O)cc21,Active,,,,,,,
CC1(C)O[C@H]2Cc3c(O)cc(O)c([C@@H]4c5c(O)cc(O)cc5O[C@H](c5ccc(O)c(O)c5)[C@H]4O)c3O[C@@H]2c2cc(O)c(O)cc21,Active,100%,Dose-dependent effect,Non-Toxic,,,,
Oc1cc(O)c2c(c1)O[C@H](c1ccc(O)c(O)c1)[C@@H](O)[C@@H]2c1c(O)cc(O)c2c1O[C@H](c1ccc(O)c(O)c1)[C@@H](O)C2,Active,100%,Dose-dependent effect,Non-Toxic,,,,
CC1(C)O[C@H]2[C@H](c3c(O)cc(O)c4c3O[C@@H]3c5cc(O)c(O)cc5C(C)(C)O[C@H]3C4)c3c(O)cc(O)cc3O[C@@H]2c2cc(O)c(O)cc21,Active,,Dose-dependent effect,Non-Toxic,Active,100%,Active,Active
Oc1cc(O)c2c(c1)O[C@H](c1ccc(O)c(O)c1)[C@@H](O)C2,Active,,,,,,,
